Experiments:
mice = assay: In vivo delivery of FLuc-mRNA lipid nanoparticle preparations in mice (IVIS imaging); set-up: In vivo IVIS / In vivo IVIS (liver) / In vivo IVIS (spleen): unit not given here; conditions: for in vivo delivery efficiency as compared to the benchmark compound SM102: certain formulations
Method: 7. In Vivo Delivery of the Nucleic Acid Lipid Nanoparticle Preparations in Mice After the preparation was completed, the preparation was injected intramuscularly (mice rectus femoris muscle of the thigh) or intravenously (mice tail vein), with approximately 75 μL per mouse, for a total of 3 mice. After a certain time of injection, in vivo imaging (PerkinElmer, IVIS Lumina III) was performed. 10-15 minutes before imaging, 200 μL of 15 mg/mL D-Luciferin working solution was injected intraperitoneally, and the imaging analysis was performed using an in vivo imager.

[1] = Particle size and PDI by dynamic light scattering; type: physicochemical
Method: The 7.5 μL nucleic acid lipid nanoparticle solution (containing approximately 0.04 mg/mL mRNA) was taken and added with 200 μL ultrapure water, mixed by gentle blowing using a pipette tip, and the particle size of the nanopreparation was detected by dynamic lightscattering (DLS) using a Malvern Dynamic Light Scattering Instrument (Malvern Instruments Ltd., ZEN3700, UK). 27.5 μL nucleic acid lipid nanoparticle solution (containing about 0.04 mg/mL mRNA) was taken and added with 200 μL ultrapure water. A pipette tip was used to gently blow the sample and mix well. The particle size of the nanopreparation was detected by Malvern Dynamic Light Scattering Instrument (Malvern Instruments Ltd., ZEN3700, UK). After the detection, the sample was recovered to an EP tube, and 600 μL of ultrapure water was added, gently blown with a pipette tip, and the potential of the nanopreparation was measured by a Malvern particle size meter.

[2] = Table 2, IV, whole body scan, molar ratio DMG-PEG2000:DSPC:Chol:Lipid and N/P
[3] = Table 2, LNP formulation with mRNA
[4] = Table 4, molar ratio 1.40:11.15:38.95:48.50, N/P 32, IV formulation
[5] = Table 4, molar ratio 2.00:4.00:59.00:35.00, N/P 35, IM formulation
[6] = Table 4, molar ratio 1.40:11.15:38.95:48.50, N/P 40, IM formulation
[7] = Table 4, molar ratio 1.50:16.00:34.00:48.50, N/P 55, IV formulation
[8] = Table 4, molar ratio 1.40:11.15:38.95:48.50, N/P 36, IV formulation

Row | SMILES | PDI ([1]; Table 4) | Particle size (nm) ([1]; Table 4) | In vivo IVIS (mice; Table 4, IM) | In vivo IVIS (mice; Table 4, IV) | In vivo IVIS (mice; Table 2, IM, whole body scan) | further results
1 | CCCCCCCCCCNC(=O)C(O)CN(Cc1ccc(CN(CC(O)C(=O)NCCCCCCCCCC)CC(O)C(=O)NCCCCCCCCCC)cc1)CC(O)C(=O)NCCCCCCCCCC (centres unmarked) [Compound L0215] | 0.11 ± 0.01 | 119.27 ± 1.75 | 2.45 × 10^5 | 4.06 × 10^5 |  | 
2 | CCCC/C=C\CCOCOCCCCOC(=O)C(O)CN(CCN1CCN(CCN(CC(O)C(=O)OCCCCOCOCC/C=C\CCCC)CC(O)C(=O)OCCCCOCOCC/C=C\CCCC)CC1)CCN(CC(O)C(=O)OCCCCOCOCC/C=C\CCCC)CC(O)C(=O)OCCCCOCOCC/C=C\CCCC (centres unmarked) [Compound L0202] |  |  |  |  | 9.20 × 10^7 | In vivo IVIS (mice; [2]): 3.73 × 10^9; in vivo delivery efficiency as compared to the benchmark compound SM102 (mice; Table 2): superior in vivo delivery efficiency; Particle size (nm) [1, 3]: 114.43 ± 0.96 nm; PDI ([1]; Table 2, polydispersity value): 0.07 ± 0.02
3 | CCCCCCOCOCCCCCCOC(=O)C(O)CN1CCN(CCN(CC(O)C(=O)OCCCCCCOCOCCCCCC)CC(O)C(=O)OCCCCCCOCOCCCCCC)CC1 (centres unmarked) [Compound L0184] |  |  |  |  | 4.88 × 10^6 | In vivo IVIS (mice; [2]): 1.17 × 10^8; Particle size (nm) ([1]; Table 2, LNP formulation with mRNA, molar ratio 1.09:8.66:30.25:60.00, N/P 50): 128.20 ± 0.95 nm; Particle size (nm) ([1]; Table 2, LNP formulation with mRNA, molar ratio 1.40:11.15:38.95:48.50, N/P 50): 119.60 ± 0.40 nm; PDI ([1]; Table 2, polydispersity value, molar ratio 1.09:8.66:30.25:60.00, N/P 50): 0.09 ± 0.01; PDI ([1]; Table 2, polydispersity value, molar ratio 1.40:11.15:38.95:48.50, N/P 50): 0.06 ± 0.00
4 | CCCCCCC(CCCCCC)C(=O)OCCCCCCOC(=O)C(O)CN(CCCN1CCN(CCCN(CC(O)C(=O)OCCCCCCOC(=O)C(CCCCCC)CCCCCC)CC(O)C(=O)OCCCCCCOC(=O)C(CCCCCC)CCCCCC)CC1)CC(O)C(=O)OCCCCCCOC(=O)C(CCCCCC)CCCCCC (centres unmarked) [Compound L0227] |  |  | 3.49 × 10^8 | 2.49 × 10^8 |  | PDI [1, 4]: 0.15 ± 0.01; Particle size (nm) [1, 4]: 113.50 ± 0.96 nm; PDI [1, 5]: 0.13 ± 0.01; Particle size (nm) [1, 5]: 112.03 ± 0.65 nm
5 | CCCCCCCCCCCCNC(=O)C(O)CN(CCCC(=O)NCCCN1CCN(CCCNC(=O)CCCN(CC(O)C(=O)NCCCCCCCCCCCC)CC(O)C(=O)NCCCCCCCCCCCC)CC1)CC(O)C(=O)NCCCCCCCCCCCC (centres unmarked) [Compound L0195] |  |  |  |  | 6.81 × 10^5 | In vivo IVIS (mice; [2]): 4.54 × 10^5; Particle size (nm) [1, 3]: 90.79 ± 0.65 nm; PDI ([1]; Table 2, polydispersity value): 0.17 ± 0.02
6 | CC/C=C\CCOCOCCCCCCOC(=O)C(O)CN(CCN1CCN(CCN(CC(O)C(=O)OCCCCCCOCOCC/C=C\CC)CC(O)C(=O)OCCCCCCOCOCC/C=C\CC)CC1)CCN(CC(O)C(=O)OCCCCCCOCOCC/C=C\CC)CC(O)C(=O)OCCCCCCOCOCC/C=C\CC (centres unmarked) [Compound L0201] |  |  |  |  | 2.18 × 10^6 | In vivo IVIS (liver) (mice; Table 2, IV, liver): 5.29 × 10^8; In vivo IVIS (spleen) (mice; Table 2, IV, spleen): 7.89 × 10^7; In vivo IVIS (mice; [2]): 4.46 × 10^6; in vivo delivery efficiency as compared to the benchmark compound SM102 (mice; Table 2): superior in vivo delivery efficiency; Particle size (nm) [1, 3]: 119.70 ± 0.61 nm; PDI ([1]; Table 2, polydispersity value): 0.07 ± 0.01
7 | CCCCCCCCCCCCOC(=O)CCN(CCC(=O)OCCCCCCCCCCCC)CCN(CCC(=O)OCCCCCCCCCCCC)CCN1CCN(CCN(CCC(=O)OCCCCCCCCCCCC)CCC(=O)OCCCCCCCCCCCC)CC1 [L0199-Control, reference compound] |  |  | 5.84 × 10^6 | 2.12 × 10^7 |  | delivery efficiency, times lower than the hydroxy compound (L0191 or L0199) (mice; IM administration): slightly lower; delivery efficiency, times lower than the hydroxy compound (L0191 or L0199) (mice; IV administration): about 44 times; PDI [1, 6]: 0.17 ± 0.02; Particle size (nm) [1, 6]: 133.43 ± 1.86 nm; PDI [1, 7]: 0.16 ± 0.03; Particle size (nm) [1, 7]: 144.33 ± 0.31 nm
8 | CCCCCCCCCCCCNC(=O)C(O)CN(CC(O)C(=O)NCCCCCCCCCCCC)[C@H]1CC[C@H](N(CC(O)C(=O)NCCCCCCCCCCCC)CC(O)C(=O)NCCCCCCCCCCCC)CC1 (some centres unmarked) [Compound L0214] | 0.21 ± 0.01 | 177.07 ± 1.00 | 2.46 × 10^5 | 3.60 × 10^5 |  | 
9 | CCCCCCCCCCCCNC(=O)C(O)CN1CCN(CCN(CC(O)C(=O)NCCCCCCCCCCCC)CC(O)C(=O)NCCCCCCCCCCCC)CC1 (centres unmarked) [Compound L0181] |  |  |  |  | 3.37 × 10^6 | Particle size (nm) [1, 3]: 71.39 ± 0.26 nm; PDI ([1]; Table 2, polydispersity value): 0.16 ± 0.02
10 | CCCCCCCCCCOC(=O)C(O)CN(Cc1ccc(CN(CC(O)C(=O)OCCCCCCCCCC)CC(O)C(=O)OCCCCCCCCCC)cc1)CC(O)C(=O)OCCCCCCCCCC (centres unmarked) [Compound L0211] | 0.22 ± 0.00 | 134.47 ± 2.72 | 1.37 × 10^5 | 1.36 × 10^5 |  | 
11 | CCCCCCOC(C)OCCCCCCOC(=O)C(O)CN(CCCN1CCN(CCCN(CC(O)C(=O)OCCCCCCOC(C)OCCCCCC)CC(O)C(=O)OCCCCCCOC(C)OCCCCCC)CC1)CC(O)C(=O)OCCCCCCOC(C)OCCCCCC (centres unmarked) [Compound L0224] |  |  | 3.31 × 10^8 | 4.84 × 10^9 |  | PDI [1, 8]: 0.07 ± 0.02; Particle size (nm) [1, 8]: 108.57 ± 1.60 nm; PDI [1, 5]: 0.14 ± 0.01; Particle size (nm) [1, 5]: 84.67 ± 0.79 nm
12 | CCCCCCCCCCOC(=O)C(O)CN1CCN(CCN(CC(O)C(=O)OCCCCCCCCCC)CC(O)C(=O)OCCCCCCCCCC)CC1 (centres unmarked) [Compound L0182] |  |  |  |  | 3.25 × 10^7 | In vivo IVIS (mice; [2]): 4.99 × 10^6; Particle size (nm) ([1]; Table 2, LNP formulation with mRNA, molar ratio 1.09:8.66:30.25:60.00, N/P 30): 89.38 ± 0.09 nm; Particle size (nm) ([1]; Table 2, LNP formulation with mRNA, molar ratio 1.40:11.15:38.95:48.50, N/P 30): 83.26 ± 0.68 nm; PDI ([1]; Table 2, polydispersity value, molar ratio 1.09:8.66:30.25:60.00, N/P 30): 0.16 ± 0.01; PDI ([1]; Table 2, polydispersity value, molar ratio 1.40:11.15:38.95:48.50, N/P 30): 0.14 ± 0.01

The next lines start with results.

Row | PDI ([1]; Table 4) | Particle size (nm) ([1]; Table 4) | SMILES | In vivo IVIS (mice; Table 4, IM) | In vivo IVIS (mice; Table 4, IV) | In vivo IVIS (mice; Table 2, IM, whole body scan) | further results
13 | 0.05 ± 0.01 | 133.83 ± 0.72 | CCCC/C=C\CCOCOCCCCOC(=O)C(O)CN1CCN(CCN(CC(O)C(=O)OCCCCOCOCC/C=C\CCCC)CC(O)C(=O)OCCCCOCOCC/C=C\CCCC)CC1 (centres unmarked) [Compound L0222] | 4.38 × 10^5 | 7.94 × 10^6 |  | 
14 | 0.07 ± 0.02 | 140.97 ± 1.48 | CC/C=C\CCOCOCCCCCCOC(=O)C(O)CN1CCN(CCN(CC(O)C(=O)OCCCCCCOCOCC/C=C\CC)CC(O)C(=O)OCCCCCCOCOCC/C=C\CC)CC1 (centres unmarked) [Compound L0221] | 1.85 × 10^5 | 3.94 × 10^5 |  | 
15 | 0.10 ± 0.02 | 179.07 ± 0.38 | CCCCCCCC/C=C\CCCCCCCCNC(=O)C(O)CN(CCCN1CCN(CCCN(CC(O)C(=O)NCCCCCCCC/C=C\CCCCCCCC)CC(O)C(=O)NCCCCCCCC/C=C\CCCCCCCC)CC1)CC(O)C(=O)NCCCCCCCC/C=C\CCCCCCCC (centres unmarked) [Compound L0229] | 5.61 × 10^6 | 2.46 × 10^8 |  | 
16 | 0.09 ± 0.02 | 87.05 ± 0.47 | CCCCCCCCCCNC(=O)C(O)CN[C@H]1CC[C@@H](N(CC(O)C(=O)NCCCCCCCCCC)CC(O)C(=O)NCCCCCCCCCC)CC1 (some centres unmarked) [Compound L0217] | 2.97 × 10^6 | 2.87 × 10^7 |  | 
17 | 0.09 ± 0.01 | 102.47 ± 0.96 | CCCCCCCCCCNC(=O)C(O)CN[C@H]1CC[C@H](N(CC(O)C(=O)NCCCCCCCCCC)CC(O)C(=O)NCCCCCCCCCC)CC1 (some centres unmarked) [Compound L0219] | 2.79 × 10^6 | 8.48 × 10^7 |  | 

Reference: patent publication US12599560B2, “Lipids and lipid nanoparticle formulations” (Longuide Biopharma Corporation, priority 2023, dated 2026)
